Results: patent US8133884B2, “Compounds for the treatment of hepatitis C” (priority 2008, dated 2012)

How the values were obtained:
HCV NS5B = target: T1, HCV NS5B (Hepatitis C virus genotype 1b, UniProt Q9WMX2); test: Modified HCV NS5B RdRp enzyme assay (preincubation protocol); format: biochemical
T1 construct: The protein was expressed with an 18 amino acid C-terminal truncation to enhance the solubility; made in house; host or cells: E. coli BL21(DE3)
In short: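 C-terminally truncated (Δ18) genotype 1b NS5B from E. coli, 14 nM, added to compound first, then polyA template (0.2 nM), 3H-UTP (0.29 μM) and oligo-dT12 primer precaptured on streptavidin SPA beads (20 nM). Run 4 h at 30° C, pH 7.5, 2% DMSO; IC50 fitted from seven concentrations.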

HCV replicon = HCV replicon assay (FRET or luciferase reporter); format: cell-based; conditions: one of the methods described
In short: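 HCV replicon Huh-7 cells were exposed to titrated compound at 37 °C, with Alamar blue as a cytotoxicity read. Replication was measured by NS3 cleavage of an EDANS/DABCYL FRET peptide (20 μM, 340/490 nm kinetic read) or by Renilla luciferase, with background from high-dose protease inhibitor wells. EC50 was taken as 50% signal reduction; a 384-well format used 3.0×10^3 cells/well, 0.5% DMSO and 3 days.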

[1] = Hepatitis C virus, class symbol

T1 sequence (Q9WMX2 2420-2992): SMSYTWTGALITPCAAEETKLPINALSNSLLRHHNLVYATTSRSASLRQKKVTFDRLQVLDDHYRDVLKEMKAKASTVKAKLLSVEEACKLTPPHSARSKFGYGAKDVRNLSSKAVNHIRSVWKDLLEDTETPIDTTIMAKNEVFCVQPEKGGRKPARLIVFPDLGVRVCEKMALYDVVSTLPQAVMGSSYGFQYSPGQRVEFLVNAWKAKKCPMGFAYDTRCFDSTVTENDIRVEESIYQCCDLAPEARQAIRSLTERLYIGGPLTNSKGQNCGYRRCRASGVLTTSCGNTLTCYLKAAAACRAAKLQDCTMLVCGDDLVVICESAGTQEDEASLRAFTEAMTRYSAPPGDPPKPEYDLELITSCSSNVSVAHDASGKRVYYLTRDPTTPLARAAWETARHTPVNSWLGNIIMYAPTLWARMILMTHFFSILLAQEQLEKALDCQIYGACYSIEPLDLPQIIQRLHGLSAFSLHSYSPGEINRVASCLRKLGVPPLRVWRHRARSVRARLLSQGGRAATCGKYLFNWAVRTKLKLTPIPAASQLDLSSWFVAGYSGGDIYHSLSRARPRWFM

| Compound | IC50 (HCV NS5B; class symbol) [nM] | EC50 (HCV replicon; [1]) [nM] | IC50 (HCV NS5B; exact value) [nM] | EC50 (HCV replicon; Hepatitis C virus, exact value) [nM] | EC50 (HCV replicon; class symbol) [nM] |
| --- | --- | --- | --- | --- | --- |
| COc1ccc2c(c1)C=C(c1c(C(=O)N3C[C@@H](C)N(C)[C@@H](C)C3)cnn1C1CC1)Cn1c-2c(C2CCCCC2)c2ccc(C(=O)NS(=O)(=O)C(C)C)cc21 | 1.7 to 500 | 1.7 to 500 |  |  |  |
| COc1ccc2c(c1)C=C(c1c(C(=O)N3CCOCC3)cnn1C1CC1)Cn1c-2c(C2CCCCC2)c2ccc(C(=O)NS(=O)(=O)C(C)C)cc21 | 1.7 to 500 | 1.7 to 500 |  |  |  |
| COc1ccc2c(c1)C=C(c1nn(C3CC3)cc1C(=O)N1CCOCC1)Cn1c-2c(C2CCCCC2)c2ccc(C(=O)NS(=O)(=O)C(C)C)cc21 | 1.7 to 500 | 1.7 to 500 |  |  |  |
| COc1ccc2c(c1)C=C(c1c(C(=O)N3CC4CCC(C3)N4C)cnn1C1CCC1)Cn1c-2c(C2CCCCC2)c2ccc(C(=O)NS(=O)(=O)CC(C)C)cc21 | 1.7 to 500 | 1.7 to 500 |  |  |  |
| COc1ccc2c(c1)C=C(c1c(C(=O)N3C4CCC3CN(C)C4)cnn1C1CCC1)Cn1c-2c(C2CCCCC2)c2ccc(C(=O)NS(=O)(=O)C(C)C)cc21 | 1.7 to 500 | 1.7 to 500 |  |  |  |
| COc1ccc2c(c1)C=C(c1c(C(=O)N3C[C@@H](C)N(C)[C@@H](C)C3)cnn1C1CCC1)Cn1c-2c(C2CCCCC2)c2ccc(C(=O)NS(=O)(=O)C(C)C)cc21 | 1.7 to 500 | 1.7 to 500 |  |  |  |
| COc1ccc2c(c1)C=C(c1c(C(=O)N3CCOCC3)cnn1C1CCC1)Cn1c-2c(C2CCCCC2)c2ccc(C(=O)NS(=O)(=O)C(C)C)cc21 | 1.7 to 500 | 1.7 to 500 |  |  |  |
| COc1ccc2c(c1)C=C(c1c(C(=O)N3C[C@@H](C)O[C@@H](C)C3)cnn1C1CCC1)Cn1c-2c(C2CCCCC2)c2ccc(C(=O)NS(=O)(=O)C(C)C)cc21 | 1.7 to 500 | 1.7 to 500 |  |  |  |
| COc1ccc2c(c1)C=C(c1c(C(=O)N3CC4CCC(C3)N4C)cnn1C1CCC1)Cn1c-2c(C2CCCCC2)c2ccc(C(=O)NS(=O)(=O)C(C)C)cc21 | 1.7 to 500 | 1.7 to 500 |  |  |  |
| COc1ccc2c(c1)C=C(c1c(C(=O)N3C4CCC3CC(C)(O)C4)cnn1C1CCC1)Cn1c-2c(C2CCCCC2)c2ccc(C(=O)NS(=O)(=O)CC(C)C)cc21 (stereo not shown) | 1.7 to 500 | 1.7 to 500 |  |  |  |
| COc1ccc2c(c1)C=C(c1c(C(=O)N3C4CCC3CC(C)(O)C4)cnn1C1CCC1)Cn1c-2c(C2CCCCC2)c2ccc(C(=O)NS(=O)(=O)C(C)C)cc21 (stereo not shown) | 1.7 to 500 | 1.7 to 500 |  |  |  |
| CCOC(=O)c1cnn(C2CCN(C)CC2)c1C1=Cc2cc(OC)ccc2-c2c(C3CCCCC3)c3ccc(C(=O)O)cc3n2C1 | 1.7 to 500 | 1.7 to 500 |  |  |  |
| COc1ccc2c(c1)C=C(c1c(C(=O)N3C4COCC3COC4)cnn1C1CCN(C)CC1)Cn1c-2c(C2CCCCC2)c2ccc(C(=O)NS(=O)(=O)C(C)C)cc21 | 1.7 to 500 | 1.7 to 500 | 7.5 | 130 |  |
| COc1ccc2c(c1)C=C(c1c(C(=O)N3CCOCC3)cnn1C1CCN(C)CC1)Cn1c-2c(C2CCCCC2)c2ccc(C(=O)NS(=O)(=O)C(C)C)cc21 | 1.7 to 500 | 1.7 to 500 |  |  |  |
| COc1ccc2c(c1)C=C(c1c(C(=O)N3C4CCC3CN(C)C4)cnn1C1CCN(C)CC1)Cn1c-2c(C2CCCCC2)c2ccc(C(=O)NS(=O)(=O)C(C)C)cc21 | 1.7 to 500 | 1.7 to 500 |  |  |  |
| COc1ccc2c(c1)C=C(c1c(C(=O)N3C[C@@H](C)O[C@@H](C)C3)cnn1C1CCN(C)CC1)Cn1c-2c(C2CCCCC2)c2ccc(C(=O)NS(=O)(=O)C(C)C)cc21 | 1.7 to 500 | 1.7 to 500 | 5.4 | 5.5 |  |
| COc1ccc2c(c1)C=C(c1c(C(=O)N3C[C@@H](C)N(C)[C@@H](C)C3)cnn1C1CCN(C)CC1)Cn1c-2c(C2CCCCC2)c2ccc(C(=O)NS(=O)(=O)C(C)C)cc21 | 1.7 to 500 | 1.7 to 500 |  |  |  |

| Compound | IC50 (HCV NS5B; class symbol) [nM] | EC50 (HCV replicon; [1]) [nM] | IC50 (HCV NS5B; exact value) [nM] | EC50 (HCV replicon; Hepatitis C virus, exact value) [nM] | EC50 (HCV replicon; class symbol) [nM] |
| --- | --- | --- | --- | --- | --- |
| CCOC(=O)c1cnn(C2CCN(C)CC2)c1C1=Cc2cc(OC)ccc2-c2c(C3CCCCC3)c3ccc(C(=O)NS(=O)(=O)C(C)C)cc3n2C1 | 1.7 to 500 | 1.7 to 500 |  |  |  |
| COc1ccc2c(c1)C=C(c1c(C(=O)N3C4CCC3CC(C)(O)C4)cnn1C1CCN(C)CC1)Cn1c-2c(C2CCCCC2)c2ccc(C(=O)NS(=O)(=O)C(C)C)cc21 (stereo not shown) | 1.7 to 500 | 1.7 to 500 | 96 | 10 |  |
| COCC1CN(C(=O)c2cnn(C3CCN(C)CC3)c2C2=Cc3cc(OC)ccc3-c3c(C4CCCCC4)c4ccc(C(=O)NS(=O)(=O)C(C)C)cc4n3C2)CCO1 (stereo not shown) | 1.7 to 500 | 1.7 to 500 |  |  |  |
| COc1ccc2c(c1)C=C(c1c(C(=O)N3C4CCCC3COC4)cnn1C1CCN(C)CC1)Cn1c-2c(C2CCCCC2)c2ccc(C(=O)NS(=O)(=O)C(C)C)cc21 | 1.7 to 500 | 1.7 to 500 |  |  |  |
| CCOC(=O)c1cnn(-c2ccncc2C)c1C1=Cc2cc(OC)ccc2-c2c(C3CCCCC3)c3ccc(C(=O)O)cc3n2C1 | 1.7 to 500 | 1.7 to 500 |  |  |  |
| CCOC(=O)c1cnn(-c2ccncc2C)c1C1=Cc2cc(OC)ccc2-c2c(C3CCCCC3)c3ccc(C(=O)NS(=O)(=O)C(C)C)cc3n2C1 | 1.7 to 500 | 1.7 to 500 |  |  |  |
| COc1ccc2c(c1)C=C(c1c(C(=O)N3CCOCC3)cnn1-c1ccncc1C)Cn1c-2c(C2CCCCC2)c2ccc(C(=O)NS(=O)(=O)C(C)C)cc21 | 1.7 to 500 | 1.7 to 500 |  |  |  |
| COCC1CN(C(=O)c2cnn(-c3ccncc3C)c2C2=Cc3cc(OC)ccc3-c3c(C4CCCCC4)c4ccc(C(=O)NS(=O)(=O)C(C)C)cc4n3C2)CCO1 (stereo not shown) | 1.7 to 500 | 1.7 to 500 | 5.5 | 170 |  |
| COc1ccc2c(c1)C=C(c1c(C(=O)N3C4CCCC3COC4)cnn1-c1ccncc1C)Cn1c-2c(C2CCCCC2)c2ccc(C(=O)NS(=O)(=O)C(C)C)cc21 | 1.7 to 500 | 1.7 to 500 | 4.3 | 4 |  |
| COc1ccc2c(c1)C=C(c1c(C(=O)N3C[C@@H](C)O[C@@H](C)C3)cnn1-c1ccncc1C)Cn1c-2c(C2CCCCC2)c2ccc(C(=O)NS(=O)(=O)C(C)C)cc21 | 1.7 to 500 | 1.7 to 500 |  |  |  |
| COc1ccc2c(c1)C=C(c1c(C(=O)N3C[C@@H](C)N(C)[C@@H](C)C3)cnn1-c1ccncc1C)Cn1c-2c(C2CCCCC2)c2ccc(C(=O)NS(=O)(=O)C(C)C)cc21 | 1.7 to 500 | 1.7 to 500 |  |  |  |
| COc1ccc2c(c1)C=C(c1c(C(=O)N3C4COCC3COC4)cnn1-c1ccncc1C)Cn1c-2c(C2CCCCC2)c2ccc(C(=O)NS(=O)(=O)C(C)C)cc21 | 1.7 to 500 | 1.7 to 500 |  |  |  |
| COc1ccc2c(c1)C=C(c1c(C(=O)N3C4CCC3CC(C)(O)C4)cnn1-c1ccncc1C)Cn1c-2c(C2CCCCC2)c2ccc(C(=O)NS(=O)(=O)C(C)C)cc21 (stereo not shown) | 1.7 to 500 | 1.7 to 500 |  |  |  |
| CCOC(=O)c1cnn(C2CC[N+](C)([O-])CC2)c1C1=Cc2cc(OC)ccc2-c2c(C3CCCCC3)c3ccc(C(=O)NS(=O)(=O)C(C)C)cc3n2C1 (stereo not shown) | 1.7 to 500 | 1.7 to 500 | 5.1 | 220 |  |
| COC[C@H]1CN(C(=O)c2cnn(C3CCC3)c2C2=Cc3cc(OC)ccc3-c3c(C4CCCCC4)c4ccc(C(=O)NS(=O)(=O)C(C)C)cc4n3C2)CCO1 | < 1.7 | 1.7 to 500 | < 1.7 | 10 |  |
| COc1ccc2c(c1)C=C(c1c(C(=O)N3C[C@@H](C)O[C@@H](C)C3)cnn1C1CCC1)Cn1c-2c(C2CCCCC2)c2ccc(C(=O)NS(=O)(=O)N(C)C)cc21 [drawing 259] | 1.7 to 500 | 1.7 to 500 |  |  |  |
| COc1ccc2c(c1)C=C(c1c(C(=O)N3C[C@@H](C)O[C@@H](C)C3)cnn1C1CCC1)Cn1c-2c(C2CCCCC2)c2ccc(C(=O)NS(=O)(=O)N(C)C)cc21 [drawing 260] | 1.7 to 500 |  |  |  | 1.7 to 500 |
